The values that follow come from article PMC5538589, “Discovery of Novel Allopurinol Derivatives with Anticancer Activity and Attenuated Xanthine Oxidase Inhibition” (Molecules, 2016).

Structures are written as SMILES. Like-named read-outs stand apart in the source and are kept apart here.

For data set [1], the system named is normal cells versus tumor types. Also on record: method as in PMID 12213470, PMID 15217612. To be noted: normal cells more resistant to anti-cancer effects; cited from earlier work.
Data set [2] deals with MDA-MB-231 cells. In words: Cell survival/growth assay (Coulter cell count), MDA-MB-231 cells.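 On all read-outs here: cells grown in DMEM with 5% FBS, vehicle control was an equal volume of DMSO.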 The format is cell-based. To be noted: 5 days, treated/vehicle cell number ratio; for viability at 1 µM / viability at 10 µM: Homo sapiens, 120 h; for viability at 1 µM: read-out: Survival Rate (%) 1 μM; for viability at 10 µM: read-out: Survival Rate (%) 10 μM.
The subject of data set [3] is BEL-7402. In words: MTT cell viability assay, human hepatoma carcinoma BEL-7402 cells. Format: cell-based. The settings on record: 24 h treatment, concentration inhibiting cancer cell replication by 50%, tested up to 100 μM.
In data set [4] the test system is SMMC-7221. In words: MTT cell viability assay, human hepatoma carcinoma SMMC-7221 cells. The format is cell-based. To be noted: read-out: IC50 SMMC-7221. (Tetrazolium assays rely on reduction of a dye to a coloured formazan, in cell work by metabolically active cells.)
Data set [5] deals with MCF-10A cells. In words: Cytotoxicity towards normal MCF-10A mammary epithelial cells (Cell Titer-Glo). The settings on record: human, MCF-10A normal mammary epithelial cells. (Cellular ATP, detected with luciferase, serves as a proxy for viable cell number.)
In data set [6] the test system is SMMC-7221. Also on record: method as in PMID 23851116. The settings on record: value from earlier study; cited from earlier work.
Data set [7] has as its system BEL-7402. Set-up: method as in PMID 23851116. The settings on record: value from earlier study; cited from earlier work.
The subject of data set [8] is MCF-10A cells. In words: in vitro. The settings on record: human.
The target of data set [9] is xanthine oxidase (XOD) (Bos taurus, UniProt P80457). To be noted: test concentrations 5, 10, 15, 25 μM; allopurinol positive control.
Where [10] appears, read: SMMC-7221, MTT, 24 h treatment, concentration inhibiting cancer cell replication by 50%, tested up to 100 μM.

xanthine oxidase (XOD), sequence (P80457 2-1332 limits assumed): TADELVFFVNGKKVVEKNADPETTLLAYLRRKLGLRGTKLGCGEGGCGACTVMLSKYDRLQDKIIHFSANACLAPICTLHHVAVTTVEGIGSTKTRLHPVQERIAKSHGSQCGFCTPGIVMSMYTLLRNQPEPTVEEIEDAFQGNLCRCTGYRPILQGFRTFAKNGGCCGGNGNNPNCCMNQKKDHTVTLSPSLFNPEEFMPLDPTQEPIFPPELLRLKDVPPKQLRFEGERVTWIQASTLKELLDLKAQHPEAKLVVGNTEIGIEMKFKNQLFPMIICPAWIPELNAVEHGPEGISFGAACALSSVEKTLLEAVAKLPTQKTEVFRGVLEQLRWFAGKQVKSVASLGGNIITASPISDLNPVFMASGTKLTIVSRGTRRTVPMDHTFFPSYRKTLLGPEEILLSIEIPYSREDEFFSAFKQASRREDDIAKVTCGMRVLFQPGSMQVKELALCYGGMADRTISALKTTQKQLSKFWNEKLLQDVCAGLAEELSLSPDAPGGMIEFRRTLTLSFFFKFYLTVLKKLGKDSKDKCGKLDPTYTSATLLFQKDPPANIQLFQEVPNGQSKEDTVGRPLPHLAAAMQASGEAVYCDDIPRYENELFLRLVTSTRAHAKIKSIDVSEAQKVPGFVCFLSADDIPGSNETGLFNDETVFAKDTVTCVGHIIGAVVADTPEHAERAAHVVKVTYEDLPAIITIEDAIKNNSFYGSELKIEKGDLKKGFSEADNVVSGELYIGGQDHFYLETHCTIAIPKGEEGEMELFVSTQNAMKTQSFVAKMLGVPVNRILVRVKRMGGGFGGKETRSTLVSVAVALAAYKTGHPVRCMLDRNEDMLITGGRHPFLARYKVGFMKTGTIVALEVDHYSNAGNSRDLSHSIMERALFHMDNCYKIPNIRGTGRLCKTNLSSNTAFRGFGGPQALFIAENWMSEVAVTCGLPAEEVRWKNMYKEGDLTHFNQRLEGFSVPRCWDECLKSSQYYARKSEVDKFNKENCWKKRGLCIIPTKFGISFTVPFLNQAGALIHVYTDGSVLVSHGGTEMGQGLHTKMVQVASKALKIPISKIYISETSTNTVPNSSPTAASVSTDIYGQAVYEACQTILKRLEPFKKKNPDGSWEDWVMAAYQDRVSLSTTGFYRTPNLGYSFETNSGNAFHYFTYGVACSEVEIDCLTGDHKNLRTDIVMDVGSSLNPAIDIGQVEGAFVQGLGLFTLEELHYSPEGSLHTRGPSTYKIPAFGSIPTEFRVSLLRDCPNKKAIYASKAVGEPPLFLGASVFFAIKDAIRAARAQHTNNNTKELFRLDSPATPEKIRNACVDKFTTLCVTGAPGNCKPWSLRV

For `C#CCCCn1c(Cc2cc(OC)c(OC)c(OC)c2Cl)nc2c(N)nc(F)nc21` [PU24FCl], the “Resistance of normal cells relative to tumor cells” value in data set [1] was 10- to 50 fold.
The compound `CCn1ncc2c(NNC(=O)CCl)ncnc21` [Compound 5g, 2-Chloro-N′-(1-ethyl-1H-pyrazolo[3,4-d]pyrimidin-4-yl)acetohydrazide] returned a melting point of 202 to 204 °C. The viability at 1 µM in [2] (MDA-MB-231, 1 μM) is 105 ± 4.8%. In [2] (MDA-MB-231, 10 μM), the viability at 10 µM was 105 ± 2.9%. Moreover, in [3], the half-maximal inhibitory concentration (IC50) is > 100 µM. In addition, in [4] (setting [10]), the IC50 is > 100 µM. In data set [5], this compound gave a 50% inhibitory concentration (IC50) at 72 h of 23.3 ± 0.71 µM.
As for `CCn1ncc2c(NNS(=O)(=O)c3ccccc3)ncnc21` [Compound 5c, N′-(1-Ethyl-1H-pyrazolo[3,4-d]pyrimidin-4-yl)benzenesulfonohydrazide], the melting point is 194 to 195 °C. Further, the viability at 1 µM in data set [2] (MDA-MB-231, 1 μM) worked out at 75.7 ± 11%. For the same compound, the viability at 10 µM in data set [2] (MDA-MB-231, 10 μM) worked out at 74.7 ± 0.1%. Besides, the IC50 in [3] was > 100 µM. Besides, the concentration for half-maximal inhibition (IC50) in data set [4] (setting [10]) was > 100 µM.
For the compound `CCn1ncc2c(NNS(=O)(=O)c3ccc(Br)cc3)ncnc21` [Compound 5d, 4-Bromo-N′-(1-ethyl-1H-pyrazolo[3,4-d]pyrimidin-4-yl)benzenesulfonohydrazide], the melting point lay in the range of 194 to 195 °C. Moreover, the viability at 1 µM in [2] (MDA-MB-231, 1 μM) stood at 80.5 ± 2%. In [2] (MDA-MB-231, 10 μM), the viability at 10 µM was determined as 70.9 ± 1%. The IC50 in data set [3] was > 100 µM. Besides, in data set [4] (setting [10]), the half-maximal inhibitory concentration (IC50) was > 100 µM.
Turning to `CCn1ncc2c(NNS(=O)(=O)c3ccc(C)cc3)ncnc21` [Compound 5a, N′-(1-Ethyl-1H-pyrazolo[3,4-d]pyrimidin-4-yl)-4-methylbenzenesulfonohydrazide], the melting point lay in the range of 186 to 187 °C. In addition, the viability at 1 µM in [2] (MDA-MB-231, 1 μM) worked out at 89.1 ± 1.5%. Besides, in [2] (MDA-MB-231, 10 μM), the viability at 10 µM is 72.8 ± 3.9%. The half-inhibitory concentration (IC50) in data set [3] is > 100 µM. The IC50 in data set [4] (setting [10]) was > 100 µM.
For `CCn1ncc2c(N(NC(=O)c3ccccc3)C(=O)c3ccccc3)ncnc21` [Compound 5f, N′-Benzoyl-N′-(1-ethyl-1H-pyrazolo[3,4-d]pyrimidin-4-yl)benzohydrazide], the melting point fell in the range of 144 to 146 °C. The viability at 1 µM in data set [2] (MDA-MB-231, 1 μM) was 102 ± 11%. The viability at 10 µM in [2] (MDA-MB-231, 10 μM) came out at 88.1 ± 1%. For the same compound, in data set [3], the IC50 was > 100 µM. Besides, in data set [4] (setting [10]), the IC50 is > 100 µM.
Take `CCOC(=O)Cn1ncc2c(Nc3ccc(NC(=O)CCl)cc3)ncnc21` [Compound 1]: in [2] (MDA-MB-231, 1 μM), the viability at 1 µM turned out to be 40.2 ± 3.9%. Also, in [2] (MDA-MB-231, 10 μM), the viability at 10 µM is 1 ± 0.6%. For the same compound, the 50% inhibitory concentration (IC50) in data set [6] is 9.03 µM; in data set [7], 18.7 µM. The compound further returned an IC50 at 72 h in [5] of 5.59 ± 0.27 µM.
`Clc1ncnc2c1cnn2Cc1ccccc1` [Compound 6, 1-Benzyl-4-chloro-1H-pyrazolo[3,4-d]pyrimidine]: the melting point is 62 to 63 °C. The viability at 1 µM in data set [2] (MDA-MB-231, 1 μM) was determined as 77.6 ± 9.1%. Besides, the viability at 10 µM in [2] (MDA-MB-231, 10 μM) is 75.7 ± 1.5%. In addition, the IC50 in data set [3] is > 100 µM. Besides, the half-maximal inhibitory concentration (IC50) in data set [4] (setting [10]) is > 100 µM.
Take `CCn1ncc2c(NN)ncnc21` [Compound 4, 1-Ethyl-4-hydrazinyl-1H-pyrazolo[3,4-d]pyrimidine]: in [2] (MDA-MB-231, 1 μM), the viability at 1 µM amounted to 66.1% and the “Survival Rate (%) 1 μM” value is on record as 66.1 ± 0.5%. Moreover, in data set [2] (MDA-MB-231, 10 μM), the viability at 10 µM stood at 27.8% and the “Survival Rate (%) 10 μM” value is 27.8 ± 2.4%. This compound also had a 50% inhibitory concentration (IC50) in [3] of 25.5 ± 0.4 µM. Also, the 50% inhibitory concentration (IC50) in data set [4] (SMMC-7221, 24 h) is 35.2 ± 0.4 µM. The same compound returned a concentration for half-maximal inhibition (IC50) at 72 h in [5] of 17.4 ± 0.69 µM.
As for `C=CCNC1=C2C[C@@H](C)C[C@H](OC)[C@H](O)[C@@H](C)/C=C(\C)[C@H](OC(N)=O)[C@@H](OC)/C=C\C=C(/C)C(=O)NC(=CC1=O)C2=O` [Compound 17-AAG, 17-N-allylamino-17-demethoxy geldanamycin, reference compound], the viability at 1 µM in data set [2] (MDA-MB-231, 1 μM) is 6.7 ± 0.5%. For the same compound, the viability at 10 µM in data set [2] (MDA-MB-231, 10 μM) is 4.8 ± 0.5%. Besides, the half-inhibitory concentration (IC50) in data set [3] is 12.4 ± 0.1 µM; in [4] (setting [10]), 9.85 ± 0.08 µM. Besides, the IC50 at 72 h in data set [8] was 0.09 ± 0.01 µM.
As to `CCn1ncc2c(NNC(C)=O)ncnc21` [Compound 5e, N′-(1-Ethyl-1H-pyrazolo[3,4-d]pyrimidin-4-yl)acetohydrazide], the viability at 1 µM in data set [2] (MDA-MB-231, 1 μM) worked out at 94.8 ± 0.5%. In addition, the viability at 10 µM in data set [2] (MDA-MB-231, 10 μM) was determined as 61.3 ± 1%. For the same compound, the IC50 in data set [3] and in data set [4] (setting [10]) was > 100 µM each time. The same compound displayed an IC50 at 72 h in [5] of 20.2 ± 0.81 µM.
Consider `O=S(=O)(NCCNc1ncnc2c1cnn2Cc1ccccc1)c1ccccc1` [Compound 8a, N-(2-((1-Benzyl-1H-pyrazolo[3,4-d]pyrimidin-4-yl)amino)ethyl)benzenesulfonamide], for which the viability at 10 µM in data set [2] (MDA-MB-231, 10 μM) is 58.4 ± 2.4%. In addition, the IC50 in data set [3] was 66.61 ± 0.62 µM; in data set [4] (setting [10]), > 100 µM.
For `O=S(=O)(NCCNc1ncnc2c1cnn2Cc1ccccc1)c1ccc(Br)cc1` [Compound 8c, N-(2-((1-benzyl-1H-pyrazolo[3,4-d]pyrimidin-4-yl)amino)ethyl)-4-bromobenzenesulfonamide], the viability at 1 µM in data set [2] (MDA-MB-231, 1 μM) is 105 ± 8.6%. Further, the viability at 10 µM in data set [2] (MDA-MB-231, 10 μM) was determined as 78.5 ± 3.9%. Further, the IC50 in data set [3] and in data set [4] (setting [10]) was > 100 µM in each case.
The compound `CCn1ncc2c(NNS(=O)(=O)c3ccc([N+](=O)[O-])cc3)ncnc21` [Compound 5b, N′-(1-Ethyl-1H-pyrazolo[3,4-d]pyrimidin-4-yl)-4-nitrobenzenesulfonohydrazide] yielded a melting point of 194 to 195 °C. In addition, the viability at 1 µM in [2] (MDA-MB-231, 1 μM) was 92.9 ± 1.5%. Besides, the viability at 10 µM in [2] (MDA-MB-231, 10 μM) came out at 68 ± 2.4%. The IC50 in [3] was > 100 µM. Also, in [4] (setting [10]), the half-inhibitory concentration (IC50) was > 100 µM.
As for `CCn1ncc2c(Cl)ncnc21` [Compound 3, 4-Chloro-1-ethyl-1H-pyrazolo[3,4-d]pyrimidine], the melting point is 76 to 77 °C. In addition, the viability at 1 µM in data set [2] (MDA-MB-231, 1 μM) was 86.2 ± 8.6%. For the same compound, the viability at 10 µM in [2] (MDA-MB-231, 10 μM) was determined as 67 ± 4.8%. Moreover, in data set [3], the IC50 is > 100 µM. In addition, the 50% inhibitory concentration (IC50) in data set [4] (setting [10]) is > 100 µM.
On to `Oc1ncnc2[nH]ncc12` [allopurinol, 4-hydroxyl-1H-pyrazolo[3,4-d]pyrimidine], for which the viability at 1 µM in data set [2] (MDA-MB-231, 1 μM) was 84.3 ± 7.7%. In data set [2] (MDA-MB-231, 10 μM), the viability at 10 µM came out at 51.7 ± 6.7%. The “XOD inhibitory activity (in words)” value in data set [9] is recorded as “strong inhibitor of XOD”.
Take `NCCNc1ncnc2c1cnn2Cc1ccccc1` [Compound 7, N1-(1-Benzyl-1H/-pyrazolo[3,4-d]pyrimidin-4-yl)ethane-1,2-diamine]: the viability at 1 µM in data set [2] (MDA-MB-231, 1 μM) was found to be 81.4 ± 7.2%. Further, the viability at 10 µM in [2] (MDA-MB-231, 10 μM) worked out at 57.5 ± 1%. For the same compound, the half-maximal inhibitory concentration (IC50) in data set [3] and in [4] (setting [10]) was > 100 µM throughout.
For the compound `O=[N+]([O-])c1ccc(S(=O)(=O)NCCNc2ncnc3c2cnn3Cc2ccccc2)cc1` [Compound 8b, N-(2-((1-Benzyl-1H-pyrazolo[3,4-d]pyrimidin-4-yl)amino)ethyl)-4-nitrobenzenesulfonamide], the viability at 1 µM in data set [2] (MDA-MB-231, 1 μM) is 75.7 ± 2.4%. Further, in [2] (MDA-MB-231, 10 μM), the viability at 10 µM is 71.8 ± 8.5%. Moreover, the IC50 is > 100 µM in data set [3] and 81.46 ± 0.78 µM in data set [4] (setting [10]).

In general, IC50 refers to the midpoint of a concentration-inhibition curve. For orientation: melting point means the temperature, or range, at which the solid turns liquid.
